Measurements published in patent publication US10150737B2, “Compounds for controlling arthropods” (priority 2013, dated 2018).

Assays:
[1] = logP determination by HPLC on a reversed-phase column (C18); assay type: physicochemical; settings: for logP^a): HPLC-MS method a); for log P: HPLC-MS
Phaedon cochleariae = Phaedon cochleariae - spray test; assay type: in vivo; settings: larvae on Chinese cabbage leaf discs, after 7 days
Procedure, shortened: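 Mortality of mustard beetle larvae was scored as % at day 7 on Brassica pekinensis leaf discs. Discs had been treated by spraying at the desired concentration, using an acetone/dimethylformamide solution diluted in water with 1000 ppm alkylaryl polyglycol ether, and dried before larvae were added.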

Tetranychus urticae = Tetranychus urticae - spray test, OP-resistant; assay type: in vivo; settings: bean leaf discs, after 6 days
Procedure, shortened: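 Mortality (%) read on day 6 after spraying Phaseolus vulgaris leaf discs carrying all mite stages with formulations at the desired concentration. Formulation: active ingredient in acetone plus dimethylformamide, made up with emulsifier-containing water (1000 ppm alkylaryl polyglycol ether).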

Amblyomma hebraeum = test: Amblyomma hebaraeum test (tick nymphs, immersion); assay type: in vivo; settings: application rate 100 ppm; tick nymphs immersed one minute; after 42 days
Procedure, shortened: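 Mortality (%) is read 42 days post-treatment, where 0% means no ticks and 100% all ticks killed. Nymphs were dipped for 1 min into the test dilution (DMSO stock diluted with water) and afterwards stored on filter paper under controlled climate.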

Ctenocephalides felis [2] = test: Ctenocephalides felis - oral test; assay type: in vivo; settings: application rate 100 ppm in citrated cattle blood; after 2 days
Procedure, shortened: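 Roughly 20 unfed adult C. felis imbibe compound-dosed citrated cattle blood (DMSO formulation) across parafilm from a cylinder above their gauze chamber; percentage mortality recorded at day 2.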

[3] = system: Boophilus microplus Parkhurst strain, SP-resistant; test: Boophilus microplus - dip test; assay type: in vivo; settings: application rate 100 ppm; dip of engorged adult female ticks; after 7 days
Procedure, shortened: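 Compound dissolved in DMSO, diluted with water, and used to fully wet groups of 8-10 engorged female cattle ticks (SP-resistant Parkhurst strain). Fertile egg laying assessed at 7 days, doubtful eggs held ~42 days until hatch; 0% means all eggs fertile.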

Myzus persicae = Myzus persicae - spray test; assay type: in vivo; settings: Chinese cabbage leaf discs, after 6 days
Procedure, shortened: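 Mortality of the green peach aphid, as % killed, was read 6 days after spraying infested Brassica pekinensis leaf discs. Compound formulated in acetone/dimethylformamide and made up with emulsifier-containing (1000 ppm) water.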

Spodoptera frugiperda = Spodoptera frugiperda - spray test; assay type: in vivo; settings: caterpillars on maize leaf discs, after 7 days
Procedure, shortened: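 Percent mortality of Spodoptera frugiperda caterpillars scored 7 days after placing them on dried maize leaf discs sprayed at the desired concentration. Spray formulation: compound dissolved in acetone/dimethylformamide, made up with water containing 1000 ppm emulsifier.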

Lucilia cuprina = Lucilia cuprina test; assay type: in vivo; settings: application rate 100 ppm; L1 larvae; after 2 days
Procedure, shortened: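 Mortality (%) of first-instar blowfly larvae, about 20 per vessel, recorded 2 days after exposure to compound-treated minced horsemeat. Compound dissolved in dimethyl sulphoxide, then water-diluted to the desired concentration.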

Rhipicephalus sanguineus = Rhipicephalus sanguineus - in vitro contact tests with adult brown dog ticks; assay type: in vivo; settings: after 48 h, ticks dead or moribund
Procedure, shortened: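 Efficacy, scored after 48 h, is the % of adult ticks dead or moribund, i.e. unable to climb away on a 45-50° C hotplate within 5 min. Tubes held 5-10 ticks in the dark at room temperature, on an acetone-applied coating of 5 μg/cm^2 (900 ppm solution).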

Ctenocephalides felis [4] = test: Ctenocephalides felis - in vitro contact tests with adult cat fleas; assay type: in vivo; settings: application rate 5 μg/cm2 (=500 g/ha); after 48 h; fleas dead or moribund
Procedure, shortened: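 Efficacy, as percentage of fleas dead or moribund, was scored at 48 h by knocking fleas to the tube base. Exposure was by contact with a dried acetone film of compound at 5 μg/cm^2 area dose; 5–10 adults per tube, room temperature, ambient humidity.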

Boophilus microplus = Boophilus microplus - injection test; assay type: in vivo; settings: application rate 20 μg/animal; injection into engorged adult female ticks; after 7 days
Procedure, shortened: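 Five engorged adult female cattle ticks each received a 1 μl abdominal injection of compound solution in dimethyl sulphoxide. Fertile egg laying was assessed at 7 days, with doubtful eggs incubated about 42 days until hatch. 0% efficacy means all eggs fertile.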

Musca domestica = Musca domestica test; assay type: in vivo; settings: application rate 100 ppm; adult houseflies; after 2 days
Procedure, shortened: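 Ten adult Musca domestica are exposed to a sugar-soaked sponge carrying the water-diluted DMSO formulation; kill in % is read 2 days later.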

[5] = reversed-phase column (C18), Table I-T3

Row | SMILES | logP^a) [1] | logP^a) [1, 5] | efficacy (Phaedon cochleariae; application rate 500 g/ha) [%] | efficacy (Tetranychus urticae; application rate 500 g/ha) [%] | efficacy (kill) (Amblyomma hebraeum) [%] | efficacy (kill) (Ctenocephalides felis [2]) [%] | efficacy (laying of fertile eggs) [3] [%] | efficacy (Myzus persicae; application rate 500 g/ha) [%] | efficacy (Spodoptera frugiperda; application rate 500 g/ha) [%] | efficacy (kill) (Lucilia cuprina) [%] | efficacy (Rhipicephalus sanguineus; application rate 5 μg/cm2) [%] | efficacy (Ctenocephalides felis [4]) [%] | efficacy (laying of fertile eggs) (Boophilus microplus) [%] | efficacy (kill) (Musca domestica) [%] | logP^a) ([1]; reversed-phase column (C18)) | log P [1, 5] | efficacy (Myzus persicae; application rate 100 g/ha) [%] | also measured
1 | Cc1cc(C(F)(C(F)(F)F)C(F)(F)F)cc(C)c1-n1cc(-c2cnc(Cl)c(C(=O)NC3CC3)c2)cn1 [I-T3-20] | 3.8 | 3.8 | 100 | 100 | 100 | 100 | 100 | 100 | 100 | 100 | 100 | 100 | 100 | 100 | – | – | – | –
2 | CCc1cc(C(F)(C(F)(F)F)C(F)(F)F)cc(C)c1-n1cc(-c2cnc(Cl)c(C(=O)NC3(C#N)CC3)c2)cn1 [I-T3-110] | – | – | 100 | 100 | 100 | 100 | 100 | 100 | 100 | 100 | 100 | 100 | 100 | 100 | 4.1 | 4.1 | – | –
3 | Cc1cc(C(F)(C(F)(F)F)C(F)(F)F)cc(C)c1-n1cc(-c2ccc(Cl)c(C(=O)NC3(C#N)CC3)c2)cn1 [I-T3-3] | 4.2 | 4.2 | – | – | 100 | 100 | 100 | – | – | 100 | 100 | 100 | 100 | 100 | – | – | 100 | efficacy (Phaedon cochleariae; application rate 100 g/ha): 100%; efficacy (Tetranychus urticae; application rate 100 g/ha): 100%; efficacy (Spodoptera frugiperda; application rate 100 g/ha): 100%
4 | O=C(NC1CC1)c1cc(-c2cnn(-c3c(Cl)cc(C(F)(F)F)cc3Cl)c2)cnc1Cl [I-T3-98] | 3.1 | – | 100 | 100 | 100 | 100 | 100 | – | 100 | 100 | 100 | 100 | 100 | 90 | – | 3.1 | 90 | –
5 | O=C(NC1CC1)c1cc(-c2cnn(-c3c(Cl)cc(C(F)(C(F)(F)F)C(F)(F)F)cc3Cl)c2)cnc1Cl [I-T3-42] | 3.8 | 3.8 | 100 | 100 | 100 | 100 | 100 | 90 | 100 | 100 | 100 | 100 | 100 | 100 | – | – | – | –
6 | Cc1cc(C(F)(C(F)(F)F)C(F)(F)F)cc(C(F)(F)F)c1-n1cc(-c2cnc(Cl)c(C(=O)NC3(C#N)CC3)c2)cn1 [I-T3-108] | – | – | 100 | 100 | 100 | 100 | 100 | 100 | 100 | 100 | – | 100 | 100 | 100 | 4.0 | 4.0 | – | efficacy (Rhipicephalus sanguineus; application rate 1 μg/cm2): 100%
